The test system of data set [1] is L. monocytogenes ATCC 19115. The experiment in a line: Antibacterial MIC. In kind it is cell-based. The note with it: Listeria monocytogenes, ATCC19115.
For data set [2], the system named is methicillin-resistant Staphylococcus aureus (MRSA). The experiment in a line: Antibacterial MIC. In kind it is cell-based.
Data set [3] deals with E. coli MC1061. The experiment in a line: Antibacterial MIC. The note with it: Escherichia coli. In kind it is cell-based.
The test system of data set [4] is K. pneumoniae ATCC 27736. The data set can be described thus: Antibacterial MIC. Format: cell-based. The conditions noted are these: Klebsiella pneumoniae, ATCC27736.
Data set [5] concerns L. monocytogenes ATCC 19115. In kind it is cell-based, Listeria monocytogenes. The note with it: strain B (Lmo), 15 serial passages.
Data set [6] relates to MRSA. Format: cell-based, Staphylococcus aureus. The conditions noted are these: strain C (MRSA), 15 serial passages.
Data set [7] has as its system VRE. Format: cell-based, enterococcus. The note with it: strain D (VRE), 15 serial passages.
Data set [8] deals with P. aeruginosa ATCC 27853. Format: cell-based. The conditions noted are these: strain I (Pae); for development of resistance (passage after which resistance developed): 15 serial passages.
The subject of data set [9] is panel of Gram-positive, Gram-negative and mycobacterial strains. The experiment in a line: Antibacterial MIC, summary over the panel of bacterial strains. In kind it is cell-based. The note with it: all bacterial strains tested.
Data set [10] deals with C. albicans ATCC 64124. The experiment in a line: Antifungal MIC. Format: cell-based. The note with it: Candida albicans, ATCC64124.
Data set [11] concerns C. albicans ATCC 90819. The experiment in a line: Antifungal MIC. The note with it: Candida albicans, ATCC90819. In kind it is cell-based.
Data set [12] in a line: Mammalian cell cytotoxicity, summary over both cell lines. Format: cell-based. The conditions noted are these: human, A549 cells and BEAS-2B cells.
The subject of data set [13] is B. subtilis 168. The experiment in a line: Antibacterial MIC. Format: cell-based. The conditions noted are these: Bacillus subtilis.
In data set [14] the test system is E. cloacae ATCC 13047. The data set can be described thus: Antibacterial MIC. Format: cell-based. The conditions noted are these: Enterobacter cloacae, ATCC13047.
For data set [15], the target named is hERG channel (Homo sapiens, UniProt Q12809). Format: binding. The conditions noted are these: class by IC50.
Chain of hERG channel (Q12809 whole entry): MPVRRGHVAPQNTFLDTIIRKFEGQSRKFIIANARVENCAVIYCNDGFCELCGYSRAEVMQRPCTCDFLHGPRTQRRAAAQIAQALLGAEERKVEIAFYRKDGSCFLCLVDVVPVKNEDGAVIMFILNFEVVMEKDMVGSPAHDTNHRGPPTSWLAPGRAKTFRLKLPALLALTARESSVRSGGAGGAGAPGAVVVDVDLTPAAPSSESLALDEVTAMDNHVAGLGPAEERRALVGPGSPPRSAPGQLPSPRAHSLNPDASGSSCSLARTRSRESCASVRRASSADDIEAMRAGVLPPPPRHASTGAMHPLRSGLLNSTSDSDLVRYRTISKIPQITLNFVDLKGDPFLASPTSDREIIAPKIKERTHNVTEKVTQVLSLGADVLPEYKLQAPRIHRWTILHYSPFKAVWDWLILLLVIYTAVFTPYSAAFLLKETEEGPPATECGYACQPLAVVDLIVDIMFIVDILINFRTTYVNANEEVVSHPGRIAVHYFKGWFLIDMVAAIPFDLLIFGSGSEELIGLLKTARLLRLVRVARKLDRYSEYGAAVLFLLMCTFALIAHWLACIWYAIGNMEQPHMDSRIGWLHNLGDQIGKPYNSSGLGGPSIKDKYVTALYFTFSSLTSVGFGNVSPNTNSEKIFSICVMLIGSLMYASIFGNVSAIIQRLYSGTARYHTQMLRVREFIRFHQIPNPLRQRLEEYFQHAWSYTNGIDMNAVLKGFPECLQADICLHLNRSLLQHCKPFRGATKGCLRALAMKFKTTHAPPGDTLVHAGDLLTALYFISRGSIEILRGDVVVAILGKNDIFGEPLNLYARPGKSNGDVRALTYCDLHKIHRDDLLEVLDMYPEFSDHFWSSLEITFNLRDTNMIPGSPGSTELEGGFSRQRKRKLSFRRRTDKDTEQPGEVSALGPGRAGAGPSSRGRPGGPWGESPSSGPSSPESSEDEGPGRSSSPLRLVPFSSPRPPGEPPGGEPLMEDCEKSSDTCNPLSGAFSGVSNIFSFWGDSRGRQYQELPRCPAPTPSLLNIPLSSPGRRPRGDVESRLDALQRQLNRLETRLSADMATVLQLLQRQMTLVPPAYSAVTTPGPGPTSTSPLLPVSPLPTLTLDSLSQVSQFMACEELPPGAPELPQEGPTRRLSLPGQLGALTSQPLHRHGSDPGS
Data set [16] relates to C. albicans ATCC 10231. In kind it is cell-based, Candida albicans. The note with it: C. albicans ATCC 10231, repeated treatments with sub-MIC drug concentrations.
Data set [17] relates to C. albicans ATCC 10231. The experiment in a line: Intracellular ROS production, DCFH-DA fluorescence assay. The conditions noted are these: 1 h at 35 °C, DCFH-DA staining. Format: cell-based, Candida albicans.
Data set [18] relates to vancomycin-resistant enterococcus (VRE). The experiment in a line: Antibacterial MIC. In kind it is cell-based.
Data set [19] deals with P. aeruginosa ATCC 27853. The data set can be described thus: Antibacterial MIC. In kind it is cell-based. The conditions noted are these: Pseudomonas aeruginosa, ATCC27853.
Data set [20] has as its system seven Candida albicans strains. The data set can be described thus: Antifungal MIC, summary over the panel of seven strains. In kind it is cell-based. The conditions noted are these: most of the fungal strains tested / overall.

In brackets after ≈: the same amount, converted by molar mass.

For orientation: MIC means the lowest concentration that inhibits growth of the organism. Lower therefore signals greater potency. The IC50 is the concentration that inhibits the measured activity by half. High values mean lower potency, low ones higher potency.

As to `NCC[C@H](O)C(=O)N[C@@H]1C[C@H](N)[C@@H](O[C@H]2O[C@H](CN)[C@@H](O)[C@H](O)[C@H]2O)[C@H](O)[C@H]1O[C@H]1O[C@H](CO)[C@@H](O)[C@H](N)[C@H]1O` [AMK, amikacin, reference compound], the MIC in [1] amounted to 3 µg/mL (≈ 5.12 µM); in data set [2], 24.5 µg/mL (≈ 41.8 µM); in [3], 24.5 µg/mL (≈ 41.8 µM); in data set [4] it was 24.5 µg/mL (≈ 41.8 µM). The “development of resistance (passage after which resistance developed)” value (shortened to “development of resistance”) in [5] amounted to 15 passages; in data set [6], 12 passages; in data set [7], 3 passages; in data set [8], 5 passages. The “MIC, range over bacterial strains tested” value in data set [9] lay within 3.9 to 125 µM.

For the compound `CC1(C)S[C@@H]2[C@H](NC(=O)[C@H](N)c3ccccc3)C(=O)N2[C@H]1C(=O)O` [AMP, ampicillin, reference compound], the MIC in [3] is over 92.8 µg/mL. Further, the “MIC, range over bacterial strains tested” value in [9] is at least 250 µM.

With `C[C@@H]1[C@H](O)[C@@H](C)/C=C/C=C/C=C/C=C/C=C/C=C/C=C/[C@H](O[C@@H]2O[C@H](C)[C@@H](O)[C@H](N)[C@@H]2O)C[C@@H]2O[C@](O)(C[C@@H](O)C[C@@H](O)[C@H](O)CC[C@@H](O)C[C@@H](O)CC(=O)O[C@H]1C)C[C@H](O)[C@H]2C(=O)O` [AmB, amphotericin B], the MIC in data set [10] is 2 to 3.9 µg/mL (≈ 2.16 to 4.22 µM); in [11] it was 2 µg/mL (≈ 2.16 µM).

Turning to `Cl.Cl.N=C(N)N/N=C/c1ccc(-c2ccc(/C=N/NC(=N)N)cc2)cc1` [Compound 3A], the MIC in [3] is over 198 µg/mL.

`Cl.Cl.N=C(N)N/N=C/c1ccc(-c2cccc(/C=N/NC(=N)N)c2)cc1` [Compound 3B] registered an MIC in data set [3] of over 198 µg/mL. This compound also displayed an IC50 in data set [12] of 4.4 to 13.9 µg/mL.

In data set [3], `C/C(=N\NC(=N)N)c1ccc(-c2ccc(/C(C)=N/NC(=N)N)cc2)cc1.Cl.Cl` [Compound 4A] registered an MIC of 26.5 µg/mL.

`C/C(=N\NC(=N)N)c1ccc(Cc2ccc(/C(C)=N/NC(=N)N)cc2)cc1.Cl.Cl` [Compound 4C] displayed an MIC in [3] of over 219 µg/mL.

`C/C(=N\NC(=N)N)c1ccc(CCc2ccc(/C(C)=N/NC(=N)N)cc2)cc1.Cl.Cl` [Compound 4D] came in with an MIC in [3] of over 226 µg/mL. Moreover, in data set [8] (after 15 serial passages at sub-inhibitory concentrations), the “increase in MIC values” is recorded as 4 fold.

As to `C/C(=N\NC(=N)N)c1ccc(Oc2ccc(/C(C)=N/NC(=N)N)cc2)cc1.Cl.Cl` [Compound 4E], the minimal inhibitory concentration (MIC) in data set [13], in data set [2] and in data set [3] was 54.9 µg/mL each time.

Turning to `C/C(=N\NC(=N)N)c1ccc2c(c1)Cc1cc(/C(C)=N/NC(=N)N)ccc1-2.Cl.Cl` [Compound 4F], the minimum inhibitory concentration (MIC) in [14] and in data set [3] was 218 µg/mL each time. The “affinity for / interaction with hERG (class)” value (“affinity for / interaction” for short) in data set [15] was “moderate (IC50 values in the range of 1-10 μM are considered to have moderate affinity)”. The “development of resistance” value in data set [5], in data set [6], in data set [7] and in data set [8] was “did not develop resistance” throughout. In data set [16], the “development of drug resistance” value is reported as “did not to develop drug resistance”. The “intracellular ROS production” value in data set [17] (1× and 2× MIC) is given as “increased intracellular ROS production”.

Take `C/C(=N\NC(=N)N)c1ccc(/C(C)=N/NC(=N)N)cc1.Cl.Cl` [Compound 4G]: the MIC in data set [3] was over 173 µg/mL.

On to `C/C(=N\NC(=N)N)c1cccc(/C(C)=N/NC(=N)N)c1.Cl.Cl` [Compound 4H], for which the MIC in data set [3] was over 173 µg/mL.

As for `Cl.N=C(N)N/N=C/c1ccc(-c2ccc(/C=N/Nc3ccccc3Cl)cc2)cc1` [Compound 7Aa], the MIC in data set [13] is over 215 µg/mL; in [1] it was 0.4 to 0.9 µg/mL; in data set [2], 0.9 µg/mL; in [18], 0.9 µg/mL; in data set [14], over 215 µg/mL; in data set [3], over 215 µg/mL. The MIC in data set [4] and in [19] was over 215 µg/mL throughout. The “affinity for / interaction” value in data set [15] is reported as “moderate (IC50 values in the range of 1-10 μM are considered to have moderate affinity)”. Also, the “development of resistance” value in data set [5] is “did not develop resistance”; in [6], “twelve”; in data set [7], “did not develop resistance”; in data set [8] it was “twelve”. The “development of drug resistance” value in data set [16] was “did not to develop drug resistance”. In addition, the “intracellular ROS production” value in data set [17] (1× and 2× MIC) is listed as “increased intracellular ROS production”.

The compound `Cl.N=C(N)N/N=C/c1ccc(-c2ccc(/C=N/Nc3ccccc3Br)cc2)cc1` [Compound 7Ab] came in with an MIC in data set [3] of over 235 µg/mL.

In data set [3], `Cl.N=C(N)N/N=C/c1ccc(-c2ccc(/C=N/Nc3ccc(Cl)cc3)cc2)cc1` [Compound 7Ad] gave an MIC of over 214 µg/mL. For the same compound, in [12], the IC50 fell in the range of 4.4 to 13.9 µg/mL.

With `Cl.N#Cc1ccc(N/N=C/c2ccc(-c3ccc(/C=N/NC(=N)N)cc3)cc2)cc1` [Compound 7Ae], the MIC in data set [3] lay within 26.1 to 52.2 µg/mL.

Regarding `Cl.N=C(N)N/N=C/c1ccc(-c2ccc(/C=N/Nc3ccc(F)cc3F)cc2)cc1` [Compound 7Af], in data set [3], the MIC is over 214 µg/mL. Further, in [15], the “affinity for / interaction” value is given as “moderate (IC50 values in the range of 1-10 μM are considered to have moderate affinity)”. For the same compound, the “antifungal activity (class)” value in data set [20] is recorded as “excellent (excellent (MIC = 0.5-3.9 μg/mL))”. In data set [12], the IC50 was 4.4 to 13.9 µg/mL.

Consider `Cl.N=C(N)N/N=C/c1ccc(-c2ccc(/C=N/Nc3ccc(Cl)cc3Cl)cc2)cc1` [Compound 7Ag], for which the MIC in data set [3] is over 231 µg/mL.

On to `C/C(=N\NC(=N)N)c1ccc(-c2ccc(/C(C)=N/Nc3ccccc3Cl)cc2)cc1.Cl` [Compound 8Aa], for which the MIC in [14], in data set [3] and in data set [19] was 213 µg/mL in each case.

`OO` [Compound H2O2, H2O2, reference compound]: in [17] (positive control at 1 mM), the “intracellular ROS production” value is recorded as “induced ROS production”.

`CC1COc2c(N3CCN(C)CC3)c(F)cc3c(=O)c(C(=O)O)cn1c23` (stereo not shown) [OFX, ofloxacin, reference compound] registered an MIC in data set [3] of 1.4 to 2.8 µg/mL (≈ 3.87 to 7.75 µM). The “MIC, range over bacterial strains tested” value in data set [9] was at most 0.5 to 31.3 µM.

For the origin of these results see PMC5164969 (Bioorganic & medicinal chemistry, 2016).
